Test results: ChEMBL document CHEMBL4417637, “Sensitization of cancer cells to nampt inhibitors by nicotinic acid phosphoribosyltransferase neutralization” (2017)
The source made the active and inactive calls. The rule behind the calls is not given here.

Experiments:
[1] = Toxicity in NAMPT inhibitor 10 mg/kg, ip bid FK866 treated SCID mouse xenografted with human NAMALWA cells assessed as induction of obvious signs of clinical toxicity at 35 mg/kg, ip bid up to 45 days; assay type: organism-based; settings: in vivo, 1080 h
[2] = tested on: NAMALVA; assay: Potentiation of NAMPT inhibitor 10 mg/kg, ip bid FK866-induced antitumor activity in human NAMALWA cells xenografted in SCID mouse assessed as increase in mouse survival at 35 mg/kg, ip bid up to 45 days; assay type: functional, organism-based
[3] = biological target: T1, Nicotinate phosphoribosyltransferase (Homo sapiens) (UniProt Q6XQN6); assay: Inhibition of NAPRT in human OVCAR5 cells assessed as potentiation of NAMPT inhibitor FK866-induced cytotoxicity by measuring reduction in cell viability at 300 uM to 1 mM incubated for 72 hrs by SRB assay; assay type: cell-based
T1 sequence (whole entry): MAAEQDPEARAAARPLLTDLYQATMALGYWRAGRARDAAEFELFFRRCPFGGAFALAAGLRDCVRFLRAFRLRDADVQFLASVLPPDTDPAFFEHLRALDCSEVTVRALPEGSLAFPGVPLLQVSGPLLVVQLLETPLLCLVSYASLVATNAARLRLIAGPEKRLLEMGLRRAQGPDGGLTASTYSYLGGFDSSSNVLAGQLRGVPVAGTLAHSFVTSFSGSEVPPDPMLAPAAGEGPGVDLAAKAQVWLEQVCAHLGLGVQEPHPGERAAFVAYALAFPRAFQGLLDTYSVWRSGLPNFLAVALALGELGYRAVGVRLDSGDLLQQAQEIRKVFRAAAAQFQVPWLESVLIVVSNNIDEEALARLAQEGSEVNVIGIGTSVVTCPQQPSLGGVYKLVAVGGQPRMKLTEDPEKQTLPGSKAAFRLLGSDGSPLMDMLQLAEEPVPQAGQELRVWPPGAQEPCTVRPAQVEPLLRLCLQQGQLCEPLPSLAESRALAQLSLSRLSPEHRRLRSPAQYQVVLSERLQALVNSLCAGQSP

SMILES | Activity [1] | Activity [2] | inhibition [3]
CC(=O)Oc1ccccc1C(=O)O [ASPIRIN] | Non-Toxic | Active | 
O=C(O)c1ccccc1O |  |  | Active
